This note sets out measurements from patent US8263606B2 (Xenon Pharmaceuticals Inc., priority 2008, dated 2012).

The target of one data set is CYP3A4 (Homo sapiens, UniProt P08684). Put plainly: Cytochrome P450 (CYP450) Inhibition Assay, CYP3A4 (Vivid fluorescence, BOMCC substrate). To be noted: human, P450 Baculosomes (recombinant CYP3A4), probe BOMCC (Vivid substrate).
In the next data set the test system is sodium channel. As to the kind of experiment: Guanidine influx assay (14C-guanidine radiotracer flux, in vitro). It counts as cell-based, human or rat. The conditions noted are these: guanidine influx assay using a known cell line that expresses a sodium channel. A digest of the protocol: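 Aconitine holds channels open while 14C-guanidine enters human or rat sodium-channel-expressing cells in choline-substituted low-sodium saline, with test agent present at ambient temperature. Retained tracer is scintillation-counted and IC50 fitted by a four-parameter logistic model.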

Chain of CYP3A4 (P08684 whole entry): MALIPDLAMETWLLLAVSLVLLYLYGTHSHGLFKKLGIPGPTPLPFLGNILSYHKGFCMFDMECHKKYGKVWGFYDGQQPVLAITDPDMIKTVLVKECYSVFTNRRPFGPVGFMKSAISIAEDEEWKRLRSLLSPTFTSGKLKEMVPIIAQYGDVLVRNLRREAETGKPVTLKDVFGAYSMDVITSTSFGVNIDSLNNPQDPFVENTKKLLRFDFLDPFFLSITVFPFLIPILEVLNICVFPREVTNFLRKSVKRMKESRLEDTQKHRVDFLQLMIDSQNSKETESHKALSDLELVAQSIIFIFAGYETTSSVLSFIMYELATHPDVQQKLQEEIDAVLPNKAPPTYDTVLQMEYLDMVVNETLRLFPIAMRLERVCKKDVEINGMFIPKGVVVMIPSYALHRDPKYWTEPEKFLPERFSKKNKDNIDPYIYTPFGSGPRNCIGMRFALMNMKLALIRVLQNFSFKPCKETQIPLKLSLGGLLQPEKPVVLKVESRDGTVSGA

For `O=C1N(Cc2cc(C(F)(F)F)ccn2)c2ccccc2C12COc1cc3c(cc12)OCCO3` (stereo not drawn) [Example 23, 1′-{[4-(trifluoromethyl)pyridin-2-yl]methyl}-2,3-dihydrospiro[furo[2,3-g][1,4]benzodioxine-8,3′-indol]-2′(1′H)-one], the melting point was 154 to 155 °C. Further, at CYP3A4, the inhibition at 10 µM is less than 50%. For the same compound, the concentration for half-maximal inhibition (IC50) in the data set on sodium channel lay in the range of 1 to 100 nM.
Compound `Cc1noc(-c2cccc(CN3C(=O)C4(COc5cc6c(cc54)OCCO6)c4ccccc43)c2)n1` (stereo not drawn) [Example 28, 1′-[3-(3-methyl-1,2,4-oxadiazol-5-yl)benzyl]-2,3-dihydrospiro[furo[2,3-g][1,4]benzodioxine-8,3′-indol]-2′(1′H)-one] had a melting point of 80 to 89 °C. The inhibition at 10 µM on CYP3A4 is less than 50%. In addition, the IC50 in the data set on sodium channel lay within 1 to 100 nM.
Regarding `Cc1noc(-c2ccc(CN3C(=O)C4(COc5cc6c(cc54)OCCO6)c4ccccc43)cc2)n1` (stereo not drawn) [Example 30, 1′-[4(3-methyl-1,2,4-oxadiazol-5-yl)benzyl]-2,3-dihydrospiro[furo[2,3-g][1,4]benzodioxine-8,3′-indol]-2′(1′H)-one], the melting point fell in the range of 177 to 178 °C. Further, the inhibition at 10 µM on CYP3A4 is less than 50%. The IC50 with sodium channel is 1 to 100 nM.
`NC(=O)c1ccc2c(c1)C1(COc3cc4c(cc31)OCCO4)C(=O)N2Cc1ccccn1` (stereo not drawn) [Example 31, 2′-oxo-1′-(pyridin-2-ylmethyl)-1′,2,2′,3-tetrahydrospiro[furo[2,3-g][1,4]benzodioxine-8,3′-indole]-5′-carboxamide] showed a melting point of 220 to 222 °C. In addition, the inhibition at 10 µM at CYP3A4 is less than 50%. Further, in the data set on sodium channel, the concentration for half-maximal inhibition (IC50) was in the range of 100 to 1000 nM.
For `O=C1N(Cc2ccc(N3CCOCC3)nc2)c2ccccc2C12COc1cc3c(cc12)OCCO3` (stereo not drawn) [Example 32, 1′-[(6-morpholin-4-ylpyridin-3-yl)methyl]-2,3-dihydrospiro[furo[2,3-g][1,4]benzodioxine-8,3′-indol]-2′(1′H)-one], the melting point fell in the range of 117 to 119 °C. For the same compound, the inhibition at 10 µM on CYP3A4 is greater than 50%. The half-inhibitory concentration (IC50) in the data set with sodium channel lay in the range of 1 to 100 nM.
With `CN(C)c1ccc(CN2C(=O)C3(COc4cc5c(cc43)OCCO5)c3ccccc32)cn1` (stereo not drawn) [Example 32.1, 1′-{[6-(dimethylamino)pyridin-3-yl]methyl}-2,3-dihydrospiro[furo[2,3-g][1,4]benzodioxine-8,3′-indol]-2′(1′H)-one], the melting point lay within 93 to 95 °C. The inhibition at 10 µM at CYP3A4 was less than 50%. In the data set on sodium channel, the IC50 was in the range of 1 to 100 nM.
On the same counts, the results for `CN(C)c1cccc(CN2C(=O)C3(COc4cc5c(cc43)OCCO5)c3ccccc32)n1` (stereo not drawn) [Example 32.2, 1-{[6-(dimethylamino)pyridin-2-yl]methyl}-2,3-dihydrospiro[furo[2,3-g][1,4]benzodioxine-8,3′-indol]-2′(1′H)-one] are 196 to 197 °C, greater than 50% and 1 to 100 nM.
The compound `O=C1N(Cc2ccc(N3CCOCC3)cn2)c2ccccc2C12COc1cc3c(cc12)OCCO3` (stereo not drawn) [Example 33.3, 1′-[(5-morpholin-4-ylpyridin-2-yl)methyl]-2,3-dihydrospiro[furo[2,3-g][1,4]benzodioxine-8,3′-indol]-2′(1′H)-one] returned a melting point of 204 to 206 °C. In addition, the inhibition at 10 µM at CYP3A4 is less than 50%. Also, the IC50 in the data set on sodium channel lay within 100 to 1000 nM.
With `CN(C)c1ccc(CN2C(=O)C3(COc4cc5c(cc43)OCCO5)c3ccccc32)nc1` (stereo not drawn) [Example 33.4, 1′-{[5-(dimethylamino)pyridin-2-yl]methyl}-2,3-dihydrospiro[furo[2,3-g][1,4]benzodioxine-8,3′-indol]-2′(1′H)-one], the melting point is 229 to 236 °C. Moreover, at CYP3A4, the inhibition at 10 µM is greater than 50%. The IC50 in the data set with sodium channel lay within 1 to 100 nM.
For the compound `O=C1N(Cc2ccc(=O)[nH]c2)c2ccccc2C12COc1cc3c(cc12)OCCO3` (stereo not drawn) [Example 35, 1′-[(6-oxo-1,6-dihydropyridin-3-yl)methyl]-2,3-dihydrospiro[furo[2,3-g][1,4]benzodioxine-8,3′-indol]-2′(1′H)-one], the melting point is 249 to 250 °C. For the same compound, the inhibition at 10 µM on CYP3A4 is less than 50%. The IC50 in the data set with sodium channel was 100 to 1000 nM.
As to `O=C1N(Cc2cnc(O)nc2)c2ccccc2C12COc1cc3c(cc12)OCCO3` (stereo not drawn) [Example 35.1, 1′-[(2-hydroxypyrimidin-5-yl)methyl]-2,3-dihydrospiro[furo[2,3-g][1,4]benzodioxine-8,3′-indol]-2′(1′H)-one], the melting point is greater than 250 °C. For the same compound, the inhibition at 10 µM on CYP3A4 is less than 50%. Moreover, in the data set on sodium channel, the half-maximal inhibitory concentration (IC50) lay within 1000 to 10000 nM.
`Cn1cc(CN2C(=O)C3(COc4cc5c(cc43)OCCO5)c3ccccc32)ccc1=O` (stereo not drawn) [Example 36, 1′-[(1-methyl-6-oxo-1,6-dihydropyridin-3-yl)methyl]-2,3-dihydrospiro[furo[2,3-g][1,4]benzodioxine-8,3′-indol]-2′(1′H)-one] had a melting point of 205 to 207 °C. Besides, the inhibition at 10 µM at CYP3A4 is less than 50%. Also, in the data set on sodium channel, the concentration for half-maximal inhibition (IC50) was in the range of 100 to 1000 nM.
On the same counts, the results for `Nc1ccc(CN2C(=O)C3(COc4cc5c(cc43)OCCO5)c3ccccc32)cn1` (stereo not drawn) [Example 37, 1′-[(6-aminopyridin-3-yl)methyl]-2,3-dihydrospiro[furo[2,3-g][1,4]benzodioxine-8,3′-indol]-2′(1′H)-one] are 117 to 119 °C, less than 50% and 1 to 100 nM.
In the case of `O=C1N(Cc2ccc(N/C=N\O)nc2)c2ccccc2C12COc1cc3c(cc12)OCCO3` (stereo not drawn) [Example 38, N′-hydroxy-N-{5-[(2′-oxo-2,3-dihydrospiro[furo[2,3-g][1,4]benzodioxine-8,3′-indol]-1′(2′H)-yl)methyl]pyridin-2-yl}imidoformamide], the melting point lay within 231 to 232 °C. Besides, the inhibition at 10 µM at CYP3A4 is less than 50%. The IC50 in the data set on sodium channel lay within 1 to 100 nM.
On the same counts, the results for `O=C1N(Cc2ccc3ncnn3c2)c2ccccc2C12COc1cc3c(cc12)OCCO3` (stereo not drawn) [Example 39, 1′-([1,2,4]triazolo[1,5-a]pyridin-6-ylmethyl)-2,3-dihydrospiro[furo[2,3-g][1,4]benzodioxine-8,3′-indol]-2′(1′H)-one] are 207 to 209 °C, greater than 50% and 1 to 100 nM.
In turn, `N#Cc1cccc(CN2C(=O)C3(COc4cc5c(cc43)OCCO5)c3ccccc32)n1` (stereo not drawn) [Example 41, 6-[(2′-oxo-2,3-dihydrospiro[furo[2,3-g][1,4]benzodioxine-8,3′-indol]-1′(2′H)-yl)methyl]pyridine-2-carbonitrile] came in with a melting point of 213 to 215 °C. Further, the inhibition at 10 µM at CYP3A4 is less than 50%. Further, the IC50 with sodium channel is 1 to 100 nM.
`COc1ccc(CN2C(=O)C3(COc4cc5onc(N)c5cc43)c3ccccc32)cc1` (stereo not drawn) [Example 44, 3-amino-1′-(4-methoxybenzyl)spiro[furo[3,2-f][1,2]benzisoxazole-5,3′-indol]-2′(1′H)-one]: the melting point was 214 to 216 °C. Further, the inhibition at 10 µM on CYP3A4 is greater than 50%. For the same compound, the IC50 in the data set with sodium channel fell in the range of 100 to 1000 nM.
For `Nc1noc2cc3c(cc12)C1(CO3)C(=O)N(Cc2ccccn2)c2ccccc21` (stereo not drawn) [Example 44.1, 3-amino-1′-(pyridin-2-ylmethyl)spiro[furo[3,2-f][1,2]benzisoxazole-5,3′-indol]-2′(1′H)-one] the same measures were 190 to 192 °C, less than 50% and 100 to 1000 nM.
In the case of `Nc1noc2cc3c(cc12)C1(CO3)C(=O)N(C[C@H]2CCCO2)c2ccccc21` (stereo partly drawn) [Example 44.2, 3-amino-1′-[(2R)-tetrahydrofuran-2-ylmethyl]spiro[furo[3,2-f][1,2]benzisoxazole-5,3′-indol]-2′(1′H)-one], the melting point fell in the range of 116 to 119 °C. The inhibition at 10 µM at CYP3A4 is less than 50%. For the same compound, the concentration for half-maximal inhibition (IC50) in the data set on sodium channel lay within 1000 to 10000 nM.
In the case of `Nc1noc2cc3c(cc12)C1(CO3)C(=O)N(Cc2ccccc2C(F)(F)F)c2ccccc21` (stereo not drawn) [Example 44.3, 3-amino-1′-[2-(trifluoromethyl)benzyl]spiro[furo[3,2-f][1,2]benzisoxazole-5,3′-indol]-2′(1′H)-one], the melting point was in the range of 262 to 264 °C. Also, the inhibition at 10 µM on CYP3A4 is greater than 50%. In addition, in the data set on sodium channel, the IC50 fell in the range of 1000 to 10000 nM.
In turn, `N#Cc1cc2c(cc1O)OCC21C(=O)N(C[C@H]2CCCO2)c2ccccc21` (stereo partly drawn) [Example 45, 6-hydroxy-2′-oxo-1′-[(2R)-tetrahydrofuran-2-ylmethyl]-1′,2′-dihydrospiro[1-benzofuran-3,3′-indole]-5-carbonitrile] had a melting point of 218 to 221 °C. Besides, the inhibition at 10 µM at CYP3A4 is less than 50%. Besides, the IC50 in the data set on sodium channel was in the range of 1000 to 10000 nM.
`N#Cc1cc2c(cc1O)OCC21C(=O)N(Cc2ccccc2C(F)(F)F)c2ccccc21` (stereo not drawn) [Example 45.1, 6-hydroxy-2′-oxo-1′-[2-(trifluoromethyl)benzyl]-1′,2′-dihydrospiro[1-benzofuran-3,3′-indole]-5-carbonitrile] had a melting point of 122 to 124 °C. In addition, the inhibition at 10 µM on CYP3A4 was less than 50%. The IC50 in the data set on sodium channel lay in the range of 1000 to 10000 nM.
Consider `O=C1N(Cc2ccccc2C(F)(F)F)c2ccccc2C12COc1cc3[nH]ncc3cc12` (stereo not drawn) [Example 46, 1′-[2-(trifluoromethyl)benzyl]-1H-spiro[furo[3,2-f]indazole-5,3′-indol]-2′(1′H)-one], for which the melting point fell in the range of 124 to 126 °C. In addition, at CYP3A4, the inhibition at 10 µM was greater than 50%. For the same compound, the half-maximal inhibitory concentration (IC50) with sodium channel lay within 1000 to 10000 nM.
On the same counts, the results for `O=C1N(Cc2ccccn2)c2ccccc2C12COc1cc3[nH]ncc3cc12` (stereo not drawn) [Example 46.1, 1′-(pyridin-2-ylmethyl)-1H-spiro[furo[3,2-f]indazole-5,3′-indol]-2′(1′H)-one] are 117 to 119 °C, less than 50% and 100 to 1000 nM.

The term inhibition denotes the share of the control response that was lost under treatment. As usually defined, the IC50 is the concentration that gives 50% inhibition. By melting point is commonly meant the temperature, or range, at which the solid turns liquid.
